# Measurements published in US12590953B2, “Methods for screening cereblon modifying compounds” (CELGENE CORPORATION, priority 2018, dated 2026).
# Entries after “also recorded” stand apart in the source; their conditions may differ. Like-named read-outs stand apart in the source and are kept apart here.
# How the values were obtained:
# [1] = test system: SALL4; test: SALL4 immunohistochemistry in rabbit embryos; assay type: in vivo; conditions: pregnant rabbits, 180 mg/kg per day from GD7, embryos GD8-12; 180 mg/kg/day
# Protocol: (§1) All animals were housed and fed according to IACUC approved procedures. The rabbits either remained untreated (n=4 per time point) or received 180 mg/kg of Thalidomide per day (n=5 per time point) starting on GD7. Dose levels and sensitive gestation windows were selected based on previously reported finding in Thalidomide teratogenicity studies (Christian MS, birth defect research, 2007)
# (§2) Cesarean sections were performed in each rabbit 3 hours after the last Thalidomide dose to ensure maximum plasma concentration of Thalidomide (CMax=3 hours) (Hui et al, Reproductive Toxicology, 2014). The uteri were removed, the implantation sites were counted and mortality and resorptions noted during embryo dissection. GD8 embryos were not dissected and were fixed in situ attached to the placental site and uterine wall. The entire implantation site was processed, embedded in paraffin and sectioned at 4 microns for immunohistochemistry. GD 9-12 embryos were collected with fetal membranes, fixed in 10% Neutral Buffered Formalin for 24 hours and transferred to 70% Ethanol. After fixation fetal membranes were removed and embryos processed, embedded in paraffin and sectioned at 4 microns for immunohistochemistry and in situ hybridization procedures.
# Rabbit embryos were stained for SALL4, and mouse testis were stained for SALL4 and ZFP91. […]
# [2] = test system: rabbit embryos; conditions: in vivo
# Protocol: as §1
# Resorption sites, embryo mortality and gross observations were recorded during embryo collection. Embryo mortality was based on the absence of a heartbeat. There were no resorption sites or embryo and placental abnormalities in the control group. […] On Day 8, all 41 implantation sites from 5 rabbits appeared normal. On Day 9, 1/5 rabbits were affected and there was 1 resorption site out of a total of 52 implantation sites. On Day 10, 1/5 rabbit was affected and there was 1 resorption site out of a total of 38 implantation sites. On Day 11, 3/5 rabbits were affected, with 2 resorptions sites (5.41%) and 2 dead embryos (5.41%) out of 37 implantation sites. On Day 12, 5/5 rabbits were affected, with 3 resorption sites (6.98%) and 11 dead embryos (25.58%) out of […] implantation sites.
# as §2
# More specifically, adult female New Zealand white rabbits between 5 and 8 months of age were time mated for embryo collection at Gestation Days (GD) 8, 9, 10, 11 and 12 as shown in Table 1 below.
# [3] = molecular target: ZFP91 (Mus musculus, UniProt Q62511); test: ZFP91 immunohistochemistry in wild-type mouse testis; assay type: in vivo; design: tissue Taconic; host or cells: wild-type mouse testis (C57Bl/6Ntac); conditions: wild type mice, 1000 mg/kg
# Chain of ZFP91 (Q8C7D2 whole entry partner): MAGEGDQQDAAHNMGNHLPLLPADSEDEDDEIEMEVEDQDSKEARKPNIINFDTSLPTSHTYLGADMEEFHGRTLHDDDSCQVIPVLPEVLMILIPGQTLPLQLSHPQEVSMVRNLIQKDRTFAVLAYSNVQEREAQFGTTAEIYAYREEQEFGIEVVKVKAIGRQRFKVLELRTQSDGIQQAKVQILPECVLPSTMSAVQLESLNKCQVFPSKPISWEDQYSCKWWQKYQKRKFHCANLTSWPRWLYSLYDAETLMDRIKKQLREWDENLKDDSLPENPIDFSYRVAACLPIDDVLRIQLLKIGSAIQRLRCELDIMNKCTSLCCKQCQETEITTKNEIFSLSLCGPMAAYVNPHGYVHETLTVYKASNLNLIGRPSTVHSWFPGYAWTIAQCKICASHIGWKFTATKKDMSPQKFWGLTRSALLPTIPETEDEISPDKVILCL
# Chain of ZFP91 (Q3U1J4 whole entry partner): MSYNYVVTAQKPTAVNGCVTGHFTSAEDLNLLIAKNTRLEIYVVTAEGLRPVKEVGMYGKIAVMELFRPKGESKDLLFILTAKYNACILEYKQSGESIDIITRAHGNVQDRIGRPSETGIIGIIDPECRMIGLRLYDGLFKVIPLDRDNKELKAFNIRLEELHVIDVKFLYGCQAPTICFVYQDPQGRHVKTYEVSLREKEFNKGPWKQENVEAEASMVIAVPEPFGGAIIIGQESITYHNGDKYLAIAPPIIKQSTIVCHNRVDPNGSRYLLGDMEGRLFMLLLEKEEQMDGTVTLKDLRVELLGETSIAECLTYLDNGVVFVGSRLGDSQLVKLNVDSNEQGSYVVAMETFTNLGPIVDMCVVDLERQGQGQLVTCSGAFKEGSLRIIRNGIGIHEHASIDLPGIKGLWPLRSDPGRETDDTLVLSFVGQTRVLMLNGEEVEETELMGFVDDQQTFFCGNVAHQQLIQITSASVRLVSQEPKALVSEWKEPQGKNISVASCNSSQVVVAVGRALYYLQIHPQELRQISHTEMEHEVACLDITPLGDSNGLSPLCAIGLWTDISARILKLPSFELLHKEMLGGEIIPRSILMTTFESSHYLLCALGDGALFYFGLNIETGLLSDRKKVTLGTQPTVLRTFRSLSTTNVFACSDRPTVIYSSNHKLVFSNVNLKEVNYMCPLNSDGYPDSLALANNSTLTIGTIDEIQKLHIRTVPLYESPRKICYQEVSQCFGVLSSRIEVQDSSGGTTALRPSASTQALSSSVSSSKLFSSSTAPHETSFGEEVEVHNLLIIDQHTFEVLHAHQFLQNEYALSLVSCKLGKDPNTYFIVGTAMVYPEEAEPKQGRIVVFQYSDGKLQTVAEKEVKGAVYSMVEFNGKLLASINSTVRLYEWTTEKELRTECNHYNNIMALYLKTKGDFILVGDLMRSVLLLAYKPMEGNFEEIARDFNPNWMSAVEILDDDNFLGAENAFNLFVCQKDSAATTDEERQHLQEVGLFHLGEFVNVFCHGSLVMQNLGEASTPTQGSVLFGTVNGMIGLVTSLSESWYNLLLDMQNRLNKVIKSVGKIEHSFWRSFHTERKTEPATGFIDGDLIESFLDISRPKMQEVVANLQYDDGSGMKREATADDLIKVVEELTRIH
# Chain of ZFP91 (Q62511 whole entry): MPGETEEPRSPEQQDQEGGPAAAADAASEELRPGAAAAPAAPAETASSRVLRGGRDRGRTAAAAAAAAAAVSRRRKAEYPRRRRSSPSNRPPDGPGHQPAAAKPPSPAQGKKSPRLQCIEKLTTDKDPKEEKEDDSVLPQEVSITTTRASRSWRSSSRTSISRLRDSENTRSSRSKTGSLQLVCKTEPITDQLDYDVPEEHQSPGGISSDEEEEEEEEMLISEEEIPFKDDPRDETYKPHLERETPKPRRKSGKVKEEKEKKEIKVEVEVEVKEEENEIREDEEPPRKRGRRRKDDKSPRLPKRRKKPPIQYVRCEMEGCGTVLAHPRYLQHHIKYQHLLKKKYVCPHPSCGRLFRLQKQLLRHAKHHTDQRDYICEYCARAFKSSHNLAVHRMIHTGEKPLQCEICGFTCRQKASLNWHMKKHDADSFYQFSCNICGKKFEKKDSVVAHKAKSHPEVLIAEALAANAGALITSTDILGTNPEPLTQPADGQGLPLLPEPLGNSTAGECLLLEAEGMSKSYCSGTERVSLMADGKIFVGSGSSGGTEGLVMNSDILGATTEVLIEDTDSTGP
# Protocol: The SALL4 and ZFP91 protein levels were examined by immunohistochemistry in rabbit, wild-type mouse, and humanized cereblon mouse testes. […] HuCRBN Mice were treated for 7 days and testis were collected and examined by immunohistochemistry (n=3 animals per treatment group per species).
# Rabbit embryos were stained for SALL4, and mouse testis were stained for SALL4 and ZFP91. Immunohistochemistry (IHC) was performed on the Bond-III automated slide stainer (Leica Microsystems, Buffalo Grove, Ill.) using the Bond Polymer Refine Detection system (Leica Microsystems, DS9800). Formalin fixed paraffin embedded (FFPE) tissues were sectioned at four micron thick and deparaffinized on the Bond-Max instrument. Antigen retrieval was performed with Epitope Retrieval 2 (ER2, pH 9.0) for 20 min at 100° C. The slides were blocked for endogenous peroxidase activity with Peroxide Block for 5 minutes at room temperature. Sections were then incubated with the mouse monoclonal anti-SALL4 EE-30 antibody (Santa Cruz, sc-101147) at a 1:100 dilution for 60 min at room temperature, or with the rabbit monoclonal anti-ZFP91 antibody (Celgene custom clone 122-8-6) at 0.25 ug/ml. For mouse testis, primary antibodies were incubated for 15 min at room temperature, and Post-Primary and horseradish peroxidase (HRP) labeled Polymer were incubated at the instrument's default conditions. […]
# [4] = female, New Zealand white, 8 gestation day
# [5] = female, New Zealand white, 9 gestation day
# [6] = female, New Zealand white, 10 gestation day
# [7] = female, New Zealand white, 11 gestation day
# [8] = female, New Zealand white, 12 gestation day
compound,measurement,setting,value
O=C1CCC(N2C(=O)c3ccccc3C2=O)C(=O)N1 (stereo not drawn) [thalidomide],SALL4 levels in embryos,[1],significant decrease in SALL4 levels which was most pronounced on GD12; also recorded: downregulation of SALL4 levels in rabbit embryos
same,Dead (dead embryos),"[2]; female, New Zealand white",0
same,"Resorbed, share of implantation sites","[2]; female, New Zealand white",1.92%
same,Average number of implantation sites,[2]; [4],8.2
same,Resorbed (resorption sites),[2]; [4],0
same,"Sites/Rabbit (implantation sites per individual rabbit; R = Resorbed, D = Dead)",[2]; [4],"9, 9, 8, 7, 8"
same,Average number of implantation sites,[2]; [5],10.4
same,Rabbits affected,[2]; [5],1/5
same,Resorbed (resorption sites),[2]; [5],1
same,Average number of implantation sites,[2]; [6],8.75
same,Dead (dead embryos),[2]; [6],1
same,"Dead, share of implantation sites",[2]; [6],0.03%
same,Rabbits affected,[2]; [6],1/5
same,Average number of implantation sites,[2]; [7],7.4
same,Dead (dead embryos),[2]; [7],2
same,"Dead, share of implantation sites",[2]; [7],5.41%
same,Rabbits affected,[2]; [7],3/5
same,Resorbed (resorption sites),[2]; [7],2
same,"Resorbed, share of implantation sites",[2]; [7],5.41%
same,Average number of implantation sites,[2]; [8],8.8
same,Dead (dead embryos),[2]; [8],11
same,"Dead, share of implantation sites",[2]; [8],25.58%
same,Rabbits affected,[2]; [8],5/5
same,Resorbed (resorption sites),[2]; [8],3
same,"Resorbed, share of implantation sites",[2]; [8],6.98%
same,Implantation frequency vs control,[2],no significant differences in implantation frequency
same,ZFP91 protein levels in testis,[3],exhibited no depletion of SALL4 or ZFP91; also recorded: did not cause significant degradation of either ZFP91 or SALL4
